Measurements: PubChem BioAssay AID248 (DTP/NCI, 2004)
Inconclusive results and toxic doses are left out. Cut-off read from the data, not from the text of the source: active = T/C of 150% or more; inactive = T/C below 125%.

System: L1210 leukemia ip in BDF1 mice, survival T/C
Assay: NCI In Vivo Anticancer Drug Screen. Data for tumor model L1210 Leukemia (intraperitoneal) in B6D2F1 (BDF1) mice
Conditions: endpoint: mean survival time, higher = longer survival
Summary of the method: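 Tumor was transplanted into mice, which were then dosed with test compound or vehicle alone. Survival was recorded for each group, and the treated figure was expressed relative to the control figure.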

[1] = dose: 100.0 mg/kg/injection, schedule: Q01DX001 (ip), vehicle: Klucel (hydroxypropylcellulose) (HPC)
[2] = dose: 100.0 mg/kg/injection, schedule: Q01DX009 (ip), vehicle: Klucel (hydroxypropylcellulose) (HPC)
[3] = dose: 100.0 mg/kg/injection, schedule: Q04DX003 (ip), vehicle: Klucel (hydroxypropylcellulose) (HPC)
[4] = dose: 200.0 mg/kg/injection, schedule: Q01DX001 (ip), vehicle: Klucel (hydroxypropylcellulose) (HPC)
[5] = dose: 200.0 mg/kg/injection, schedule: Q01DX009 (ip), vehicle: Klucel (hydroxypropylcellulose) (HPC)
[6] = dose: 200.0 mg/kg/injection, schedule: Q04DX003 (ip), vehicle: Klucel (hydroxypropylcellulose) (HPC)
[7] = dose: 400.0 mg/kg/injection, schedule: Q01DX001 (ip), vehicle: Klucel (hydroxypropylcellulose) (HPC)
[8] = dose: 400.0 mg/kg/injection, schedule: Q04DX003 (ip), vehicle: Klucel (hydroxypropylcellulose) (HPC)
[9] = dose: 100.0 mg/kg/injection, schedule: Q04DX003 (ip), vehicle: saline with Tween-80
[10] = dose: 200.0 mg/kg/injection, schedule: Q04DX003 (ip), vehicle: saline with Tween-80
[11] = dose: 400.0 mg/kg/injection, schedule: Q04DX003 (ip), vehicle: saline with Tween-80

Measured: T/C

CSc1ncnc2c1ncn2C1OC(COC(N)=O)C(O)C1O (stereo not given)
inactive: dose: 100.0 mg/kg/injection, schedule: Q01DX005 (ip), vehicle: saline 107 % of control | dose: 200.0 mg/kg/injection, schedule: Q01DX005 (ip), vehicle: saline 114 % of control

CN(CCc1ccccc1)/N=N/c1[nH]ncc1C(N)=O
inactive: [1] 108 % of control | [2] 103 % of control | [3] 105 % of control | [4] 105 % of control | [5] 106 % of control | [6] 97 % of control | [7] 113 % of control | [8] 100 % of control | dose: 600.0 mg/kg/injection, schedule: Q01DX009 (ip), vehicle: Klucel (hydroxypropylcellulose) (HPC) 105 % of control

c1ccn2nnc(-c3nnn4ccccc34)c2c1
inactive: dose: 100.0 mg/kg/injection, schedule: Q04DX002 (ip), vehicle: saline with Tween-80 102 % of control | dose: 200.0 mg/kg/injection, schedule: Q04DX002 (ip), vehicle: saline with Tween-80 95 % of control | dose: 400.0 mg/kg/injection, schedule: Q04DX002 (ip), vehicle: saline with Tween-80 91 % of control

CCOc1ccccc1/C=C(\C#N)c1cccc(Cl)c1
inactive: dose: 100.0 mg/kg/injection, schedule: Q01DX009 (ip), vehicle: other 87 % of control | dose: 200.0 mg/kg/injection, schedule: Q01DX009 (ip), vehicle: other 88 % of control

O=S(CCCl)CCCl
inactive: dose: 0.21 mg/kg/injection, schedule: Q04DX003 (ip), vehicle: Klucel (hydroxypropylcellulose) (HPC) 95 % of control | dose: 0.42 mg/kg/injection, schedule: Q04DX003 (ip), vehicle: Klucel (hydroxypropylcellulose) (HPC) 93 % of control | dose: 0.85 mg/kg/injection, schedule: Q04DX003 (ip), vehicle: Klucel (hydroxypropylcellulose) (HPC) 98 % of control | dose: 0.9 mg/kg/injection, schedule: Q01DX009 (ip), vehicle: Klucel (hydroxypropylcellulose) (HPC) 116 % of control | dose: 1.3 mg/kg/injection, schedule: Q01DX009 (ip), vehicle: Klucel (hydroxypropylcellulose) (HPC) 116 % of control | dose: 2.0 mg/kg/injection, schedule: Q04DX003 (ip), vehicle: Klucel (hydroxypropylcellulose) (HPC) 120 % of control | dose: 2.6 mg/kg/injection, schedule: Q04DX003 (ip), vehicle: Klucel (hydroxypropylcellulose) (HPC) 123 % of control | dose: 6.0 mg/kg/injection, schedule: Q04DX003 (ip), vehicle: Klucel (hydroxypropylcellulose) (HPC) 115 % of control | dose: 8.0 mg/kg/injection, schedule: Q01DX009 (ip), vehicle: Klucel (hydroxypropylcellulose) (HPC) 109 % of control | dose: 8.0 mg/kg/injection, schedule: Q04DX003 (ip), vehicle: Klucel (hydroxypropylcellulose) (HPC) 114 % of control | dose: 12.5 mg/kg/injection, schedule: Q04DX003 (ip), vehicle: Klucel (hydroxypropylcellulose) (HPC) 90 % of control | dose: 50.0 mg/kg/injection, schedule: Q04DX003 (ip), vehicle: Klucel (hydroxypropylcellulose) (HPC) 89 % of control

Oc1c(Cl)c(Cl)cc(Cl)c1Cc1c(Cl)cc(Cl)c(Cl)c1[O][Pb]([c]1ccccc1)([c]1ccccc1)[c]1ccccc1
inactive: dose: 6.25 mg/kg/injection, schedule: Q01DX009 (ip), vehicle: saline 101 % of control | dose: 12.5 mg/kg/injection, schedule: Q01DX009 (ip), vehicle: saline 95 % of control | dose: 25.0 mg/kg/injection, schedule: Q04DX002 (ip), vehicle: saline 86 % of control | dose: 100.0 mg/kg/injection, schedule: Q04DX002 (ip), vehicle: saline 97 % of control

Nc1nccc2snnc12
inactive: [1] 91 % of control | [3] 94 % of control | [4] 89 % of control | [6] 104 % of control | [7] 97 % of control | [8] 100 % of control

O=C(C=c1sc(=CC(=O)c2ccccc2)s1)c1ccccc1
inactive: [1] 97 % of control | [4] 97 % of control | [7] 97 % of control

CC1c2ccccc2C(C)c2c1cc(F)c1ccccc21 (stereo not given)
inactive: dose: 100.0 mg/kg/injection, schedule: Q04DX002 (ip), vehicle: other 115 % of control | dose: 200.0 mg/kg/injection, schedule: Q04DX002 (ip), vehicle: other 93 % of control | dose: 400.0 mg/kg/injection, schedule: Q04DX002 (ip), vehicle: other 101 % of control

CCCCCCCCCCCCC(CCCCCCCCCCC)CCCCCCCCCCCC
inactive: dose: 100.0 mg/kg/injection, schedule: Q01DX001 (ip), vehicle: saline with Tween-80 97 % of control | dose: 200.0 mg/kg/injection, schedule: Q01DX001 (ip), vehicle: saline with Tween-80 97 % of control | dose: 400.0 mg/kg/injection, schedule: Q01DX001 (ip), vehicle: saline with Tween-80 96 % of control

O=C1CCc2ccccc2/C1=C\c1ccccc1
inactive: [9] 98 % of control | [10] 97 % of control | [11] 92 % of control

CCCn1nnc2ccccc2c1=Nc1ccccc1
inactive: dose: 100.0 mg/kg/injection, schedule: Q04DX003 (ip), vehicle: saline 99 % of control | dose: 200.0 mg/kg/injection, schedule: Q04DX003 (ip), vehicle: saline 94 % of control | dose: 400.0 mg/kg/injection, schedule: Q04DX003 (ip), vehicle: saline 103 % of control

COc1ccc(/C=C(\C#N)c2ccc([N+](=O)[O-])cc2)cc1[N+](=O)[O-]
inactive: dose: 100.0 mg/kg/injection, schedule: Q04DX002 (ip), vehicle: Klucel (hydroxypropylcellulose) (HPC) 105 % of control | dose: 200.0 mg/kg/injection, schedule: Q04DX002 (ip), vehicle: Klucel (hydroxypropylcellulose) (HPC) 105 % of control | dose: 400.0 mg/kg/injection, schedule: Q04DX002 (ip), vehicle: Klucel (hydroxypropylcellulose) (HPC) 102 % of control

Cn1c2c(c(=O)n(C)c1=O)CC(=O)N2
inactive: dose: 50.0 mg/kg/injection, schedule: Q01DX009 (ip), vehicle: Klucel (hydroxypropylcellulose) (HPC) 100 % of control | [2] 103 % of control

O=C(O)Cc1ccc(N=Nc2c(O)c(C(=O)O)cc3ccccc23)cc1
inactive: [2] 96 % of control | [3] 93 % of control | [5] 105 % of control | [6] 100 % of control | dose: 400.0 mg/kg/injection, schedule: Q01DX009 (ip), vehicle: Klucel (hydroxypropylcellulose) (HPC) 100 % of control | [8] 103 % of control

C=CCOc1ccccc1C(C)=O
inactive: [9] 97 % of control | [10] 97 % of control | [11] 89 % of control

COCCNc1ccc(NCCOC)c2c1C(=O)c1ccccc1C2=O
inactive: dose: 87.5 mg/kg/injection, schedule: Q04DX003 (ip), vehicle: Klucel (hydroxypropylcellulose) (HPC) 91 % of control | dose: 175.0 mg/kg/injection, schedule: Q04DX003 (ip), vehicle: Klucel (hydroxypropylcellulose) (HPC) 91 % of control | dose: 350.0 mg/kg/injection, schedule: Q04DX003 (ip), vehicle: Klucel (hydroxypropylcellulose) (HPC) 88 % of control
